According to PubChem BioAssay AID2060901 (Molecular Pharmacology Branch, DTP, NCI, 2025):

System: 422866-222-R5-J1-PDC complex spheroids viability
Experiment: Anticancer human tumor 422866-222-R5-J1-PDC patient-derived pancreatic adenocarcinoma cell line growth inhibition [RAS]
Conditions: for IC50: curve of first compound; for viability, T/C: stronger effect = lower value; active = viability on the fitted dose curve at most 10% of control; inactive = the rest
In short: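 Multi-cell-type spheroids: tumor cells plus HUVEC endothelial cells and mesenchymal stem cells. RAS-pathway inhibitors were combined with targeted agents, each dosed in half-log steps down from clinical Cmax, or from 10 microM when Cmax was unknown.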

[1] = second compound 0.0316 µM, first compound 0.00316 µM
[2] = second compound 0.0316 µM, first compound 0.01 µM
[3] = second compound 0.0316 µM, first compound 0.0316 µM
[4] = second compound 0.0316 µM, first compound 0.1 µM
[5] = second compound 0.0316 µM, first compound 0.316 µM
[6] = second compound 0.0316 µM, first compound 1 µM
[7] = second compound 0.1 µM, first compound 0.00316 µM
[8] = second compound 0.1 µM, first compound 0.01 µM
[9] = second compound 0.1 µM, first compound 0.0316 µM
[10] = second compound 0.1 µM, first compound 0.1 µM
[11] = second compound 0.1 µM, first compound 0.316 µM
[12] = second compound 0.1 µM, first compound 1 µM
[13] = second compound 0.316 µM, first compound 0.00316 µM
[14] = second compound 0.316 µM, first compound 0.01 µM
[15] = second compound 0.316 µM, first compound 0.0316 µM
[16] = second compound 0.316 µM, first compound 0.1 µM
[17] = second compound 0.316 µM, first compound 0.316 µM
[18] = second compound 0.316 µM, first compound 1 µM
[19] = second compound 1 µM, first compound 0.00316 µM
[20] = second compound 1 µM, first compound 0.01 µM
[21] = second compound 1 µM, first compound 0.0316 µM
[22] = second compound 1 µM, first compound 0.1 µM
[23] = second compound 1 µM, first compound 0.316 µM
[24] = second compound 1 µM, first compound 1 µM
[25] = second compound 0.0316 µM, first compound 0.000949 µM
[26] = second compound 0.0316 µM, first compound 0.003 µM
[27] = second compound 0.0316 µM, first compound 0.00949 µM
[28] = second compound 0.0316 µM, first compound 0.03 µM
[29] = second compound 0.0316 µM, first compound 0.0949 µM
[30] = second compound 0.0316 µM, first compound 0.3 µM
[31] = second compound 0.1 µM, first compound 0.000949 µM
[32] = second compound 0.1 µM, first compound 0.003 µM
[33] = second compound 0.1 µM, first compound 0.00949 µM
[34] = second compound 0.1 µM, first compound 0.03 µM
[35] = second compound 0.1 µM, first compound 0.0949 µM
[36] = second compound 0.1 µM, first compound 0.3 µM
[37] = second compound 0.316 µM, first compound 0.000949 µM
[38] = second compound 0.316 µM, first compound 0.003 µM
[39] = second compound 0.316 µM, first compound 0.00949 µM
[40] = second compound 0.316 µM, first compound 0.03 µM
[41] = second compound 0.316 µM, first compound 0.0949 µM
[42] = second compound 0.316 µM, first compound 0.3 µM
[43] = second compound 1 µM, first compound 0.000949 µM
[44] = second compound 1 µM, first compound 0.003 µM
[45] = second compound 1 µM, first compound 0.00949 µM
[46] = second compound 1 µM, first compound 0.03 µM
[47] = second compound 1 µM, first compound 0.0949 µM
[48] = second compound 1 µM, first compound 0.3 µM
[49] = second compound 3.16 µM, first compound 0.000949 µM
[50] = second compound 3.16 µM, first compound 0.003 µM
[51] = second compound 3.16 µM, first compound 0.00949 µM
[52] = second compound 3.16 µM, first compound 0.03 µM
[53] = second compound 3.16 µM, first compound 0.0949 µM
[54] = second compound 3.16 µM, first compound 0.3 µM
[55] = second compound 10 µM, first compound 0.000949 µM
[56] = second compound 10 µM, first compound 0.003 µM
[57] = second compound 10 µM, first compound 0.00949 µM
[58] = second compound 10 µM, first compound 0.03 µM
[59] = second compound 10 µM, first compound 0.0949 µM
[60] = second compound 10 µM, first compound 0.3 µM
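Note: spheroids exposed to compounds for 7 days.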
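Throughout, for viability, T/C: 100% = DMSO vehicle control viability.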

C=CC(=O)N1CCN(c2nc(OCC3CCCN3C)nc3c(F)c(-c4nc(N)cc(C)c4C(F)(F)F)c(Cl)cc23)C(C)C1 (stereo not drawn) + C#Cc1c(F)ccc2cc(O)cc(-c3ncc4c(N5CC6CCC(C5)N6)nc(OCC56CCCN5CC(F)C6)nc4c3F)c12
inactive: viability, T/C [1] 29.7% | viability, T/C [2] 24% | viability, T/C [3] 21.9% | viability, T/C [4] 19.4% | viability, T/C [5] 19% | viability, T/C [6] 22% | viability, T/C [7] 28.4% | viability, T/C [8] 24.6% | viability, T/C [9] 21.2% | viability, T/C [10] 18.6% | viability, T/C [11] 20.9% | viability, T/C [12] 21.3% | viability, T/C [13] 29.6% | viability, T/C [14] 24.6% | viability, T/C [15] 25.7% | viability, T/C [16] 19.2% | viability, T/C [17] 21% | viability, T/C [18] 21% | viability, T/C [19] 20.5% | viability, T/C [20] 21.4% | viability, T/C [21] 21.7% | viability, T/C [22] 19.8% | viability, T/C [23] 18.8% | viability, T/C [24] 17.5% | viability, T/C (second compound 3.16 µM, first compound 0.00316 µM) 21.6% | viability, T/C (second compound 3.16 µM, first compound 0.01 µM) 18.1% | viability, T/C (second compound 3.16 µM, first compound 0.0316 µM) 21% | viability, T/C (second compound 3.16 µM, first compound 0.1 µM) 22.5% | viability, T/C (second compound 3.16 µM, first compound 0.316 µM) 19% | viability, T/C (second compound 3.16 µM, first compound 1 µM) 22.6% | viability, T/C (second compound 10 µM, first compound 0.00316 µM) 17.9% | viability, T/C (second compound 10 µM, first compound 0.01 µM) 20.3% | viability, T/C (second compound 10 µM, first compound 0.0316 µM) 20.8% | viability, T/C (second compound 10 µM, first compound 0.1 µM) 17.5% | viability, T/C (second compound 10 µM, first compound 0.316 µM) 20.7% | viability, T/C (second compound 10 µM, first compound 1 µM) 17.6%
< 3.16 nM: IC50 (second compound 0.0316 µM) | IC50 (second compound 0.1 µM) | IC50 (second compound 0.316 µM) | IC50 (second compound 1 µM) | IC50 (second compound 3.16 µM) | IC50 (second compound 10 µM)

CC1(C)CCC(Nc2ncc(C(F)(F)F)c(-c3c[nH]c4c(P(C)(C)=O)c(C#N)ccc34)n2)CN1 (stereo not drawn) + C#Cc1c(F)ccc2cc(O)cc(-c3ncc4c(N5CC6CCC(C5)N6)nc(OCC56CCCN5CC(F)C6)nc4c3F)c12
> 300 nM: IC50 (second compound 0.0316 µM)
7.9 nM: IC50 (second compound 0.316 µM)
1.6 nM: IC50 (second compound 1 µM)
91.8 nM: IC50 (second compound 0.1 µM)
inactive: viability, T/C [25] 112% | viability, T/C [26] 83.3% | viability, T/C [27] 80.6% | viability, T/C [28] 55.6% | viability, T/C [29] 62% | viability, T/C [30] 56.4% | viability, T/C [31] 100% | viability, T/C [32] 68% | viability, T/C [33] 73.8% | viability, T/C [34] 38.2% | viability, T/C [35] 47.5% | viability, T/C [36] 55.6% | viability, T/C [37] 64.2% | viability, T/C [38] 66.4% | viability, T/C [39] 45.5% | viability, T/C [40] 45.1% | viability, T/C [41] 52.6% | viability, T/C [42] 45.3% | viability, T/C [43] 54.1% | viability, T/C [44] 44.1% | viability, T/C [45] 40.3% | viability, T/C [46] 42.7% | viability, T/C [47] 34.5% | viability, T/C [48] 34.6% | viability, T/C [49] 27% | viability, T/C [50] 37.7% | viability, T/C [51] 28.4% | viability, T/C [52] 28.8% | viability, T/C [53] 29.1% | viability, T/C [54] 26.9% | viability, T/C [55] 24.2% | viability, T/C [56] 25.1% | viability, T/C [57] 24.1% | viability, T/C [58] 27.8% | viability, T/C [59] 27.9% | viability, T/C [60] 31.2%
< 0.949 nM: IC50 (second compound 3.16 µM) | IC50 (second compound 10 µM)

CCc1c2c(nc3ccc(O)cc13)-c1cc3c(c(=O)n1C2)COC(=O)[C@]3(O)CC + C#Cc1c(F)ccc2cc(O)cc(-c3ncc4c(N5CC6CCC(C5)N6)nc(OCC56CCCN5CC(F)C6)nc4c3F)c12
< 0.949 nM: IC50 (second compound 1 µM) | IC50 (second compound 3.16 µM) | IC50 (second compound 10 µM)
2.85 nM: IC50 (second compound 0.0316 µM)
2.74 nM: IC50 (second compound 0.1 µM)
inactive: viability, T/C [25] 80.6% | viability, T/C [26] 49.4% | viability, T/C [27] 39.9% | viability, T/C [28] 41.9% | viability, T/C [29] 48.5% | viability, T/C [30] 45.5% | viability, T/C [31] 75.2% | viability, T/C [32] 49.4% | viability, T/C [33] 35.2% | viability, T/C [34] 49.8% | viability, T/C [35] 58.4% | viability, T/C [36] 36.1% | viability, T/C [37] 65.4% | viability, T/C [38] 36.4% | viability, T/C [39] 49.8% | viability, T/C [40] 56.5% | viability, T/C [41] 49.2% | viability, T/C [42] 34.7% | viability, T/C [43] 48.6% | viability, T/C [44] 35.9% | viability, T/C [45] 35.4% | viability, T/C [46] 38.2% | viability, T/C [47] 53.3% | viability, T/C [48] 31.2% | viability, T/C [49] 26.3% | viability, T/C [50] 28.7% | viability, T/C [51] 22.4% | viability, T/C [52] 22.9% | viability, T/C [53] 25.6% | viability, T/C [54] 25.1% | viability, T/C [55] 23% | viability, T/C [56] 21% | viability, T/C [57] 20.7% | viability, T/C [58] 18.1% | viability, T/C [59] 19.5% | viability, T/C [60] 13.5%
95.2 nM: IC50 (second compound 0.316 µM)

C=CC(=O)Nc1cc(Nc2nccc(-c3cn(C)c4ccccc34)n2)c(OC)cc1N(C)CCN(C)C + C=CC(=O)N1CCN(c2nc(OCC3CCCN3C)nc3c(F)c(-c4nc(N)cc(C)c4C(F)(F)F)c(Cl)cc23)C(C)C1
inactive: viability, T/C (second compound 0.00316 µM, first compound 0.00316 µM) 26.3% | viability, T/C (second compound 0.00316 µM, first compound 0.01 µM) 28.2% | viability, T/C (second compound 0.00316 µM, first compound 0.0316 µM) 29% | viability, T/C (second compound 0.00316 µM, first compound 0.1 µM) 28% | viability, T/C (second compound 0.00316 µM, first compound 0.316 µM) 18.5% | viability, T/C (second compound 0.00316 µM, first compound 1 µM) 12.4% | viability, T/C (second compound 0.01 µM, first compound 0.00316 µM) 34.1% | viability, T/C (second compound 0.01 µM, first compound 0.01 µM) 21.1% | viability, T/C (second compound 0.01 µM, first compound 0.0316 µM) 20.5% | viability, T/C (second compound 0.01 µM, first compound 0.1 µM) 19.8% | viability, T/C (second compound 0.01 µM, first compound 0.316 µM) 17.3% | viability, T/C (second compound 0.01 µM, first compound 1 µM) 12.3% | viability, T/C [1] 33.4% | viability, T/C [2] 26.3% | viability, T/C [3] 21.5% | viability, T/C [4] 16.5% | viability, T/C [5] 17% | viability, T/C [6] 12.2% | viability, T/C [7] 22.8% | viability, T/C [8] 21.9% | viability, T/C [9] 17.3% | viability, T/C [10] 17.6% | viability, T/C [11] 16.6% | viability, T/C [12] 11.9% | viability, T/C [13] 19.7% | viability, T/C [14] 21.4% | viability, T/C [15] 20% | viability, T/C [16] 21.8% | viability, T/C [17] 18.1% | viability, T/C [18] 14.2% | viability, T/C [19] 20.5% | viability, T/C [20] 20.8% | viability, T/C [21] 22.7% | viability, T/C [22] 20.9% | viability, T/C [23] 18.6% | viability, T/C [24] 12.4%
< 3.16 nM: IC50 (second compound 0.00316 µM) | IC50 (second compound 0.01 µM) | IC50 (second compound 0.0316 µM) | IC50 (second compound 0.1 µM) | IC50 (second compound 0.316 µM) | IC50 (second compound 1 µM)
